The test system of one test is N. gonorrhoeae FA19. Put plainly: Liquid broth MIC, N. gonorrhoeae FA19. The test is classed as cell-based. The note with it: Neisseria gonorrhoeae; N. gonorrhoeae FA19, liquid broth; read-out: Minimum Inhibitory Concentration, N. gonorrhoeae FA19. Summed up: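 Growth inhibition was scored by eye as the lowest compound concentration free of bacterial growth. Cultures from Kellogg's-supplemented GC agar, diluted to 5×10^5 CFU/mL, were exposed to serially diluted compound for 40-42 h at 36° C under 5% CO2.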

Another test has as its target E. coli PBP3 (Escherichia coli (strain K12), UniProt P0AD68). As to the kind of experiment: E. coli PBP3 Bocillin-FL fluorescence polarization competition binding assay. Summed up: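 Competition against 0.1 μM Bocillin-FL for binding to 1.5 μM purified protein, read by fluorescence polarization for 60 min. Compounds tested from 0 to 1000 μM; EC50 taken as the concentration reducing probe binding.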

A further test has as its system E. coli 901C. Put plainly: microbe, parasite or virus in culture. It counts as cell-based. The note with it: Escherichia coli; hyper-permeable E. coli 901C, broth microdilution; read-out: MIC E. coli 901C. Summed up: (§1)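 Strains are tested by standard CLSI broth microdilution. Log-phase cells, diluted by OD600 to 5×10^5 CFU/mL, meet 2-fold compound series and incubate 16-20 hours at 37° C before the lowest growth-free concentration is recorded.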

Another test relates to E. coli AG100A. As to the kind of experiment: microbe, parasite or virus in culture. It counts as cell-based. The note with it: Escherichia coli, read-out: MIC E. coli AG100A. Summed up: as §1
The next test has as its system E. coli D22. Put plainly: microbe, parasite or virus in culture. As to conditions: Escherichia coli; hyper-permeable E. coli D22, broth microdilution; read-out: MIC E. coli D22. The test is classed as cell-based. Summed up:
as §1

The next test relates to K. pneumoniae UMM. As to the kind of experiment: microbe, parasite or virus in culture. It counts as cell-based. The note with it: Klebsiella pneumoniae; K. pneumoniae UMM producing SHV-5 and KPC-2; read-out: MIC K. pneumoniae UMM. Summed up:
as §1

The subject of a further test is K. pneumoniae SI-117. As to the kind of experiment: microbe, parasite or virus in culture. It counts as cell-based. The note with it: Klebsiella pneumoniae, SI117, read-out: MIC K. pneumoniae SI-117. Summed up: as §1
Where [1] appears, read: fluorescence polarization competition binding with Bocillin-FL, read-out: E. coli K12 PBP3 Potency.

Values after ≈ are worked out from the molar mass of the structure shown. Like-named read-outs stand apart in the source and are kept apart here. Some results are limits rather than exact numbers.

Chain of E. coli PBP3 (P0AD68 whole entry): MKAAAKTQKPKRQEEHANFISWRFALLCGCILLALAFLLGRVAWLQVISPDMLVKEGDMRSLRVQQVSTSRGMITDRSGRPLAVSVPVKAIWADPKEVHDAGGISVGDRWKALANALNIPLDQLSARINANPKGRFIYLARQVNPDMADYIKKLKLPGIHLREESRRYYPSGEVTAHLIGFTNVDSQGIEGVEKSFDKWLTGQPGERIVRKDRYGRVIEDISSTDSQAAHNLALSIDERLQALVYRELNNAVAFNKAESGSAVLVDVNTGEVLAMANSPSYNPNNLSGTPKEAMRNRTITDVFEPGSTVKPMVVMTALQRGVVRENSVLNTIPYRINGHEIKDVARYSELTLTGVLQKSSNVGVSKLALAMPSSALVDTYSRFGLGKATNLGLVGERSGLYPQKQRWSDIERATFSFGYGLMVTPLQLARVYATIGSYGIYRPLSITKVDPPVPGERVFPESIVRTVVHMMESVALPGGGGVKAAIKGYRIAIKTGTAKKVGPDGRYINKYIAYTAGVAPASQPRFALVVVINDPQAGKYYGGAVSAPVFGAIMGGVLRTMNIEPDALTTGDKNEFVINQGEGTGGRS

Regarding `CCN1CCN(C(=O)N[C@H](C(=O)N[C@H]2Cc3ccc(F)c(C(=O)O)c3OB2O)c2ccc(O)c(O)c2Cl)C(=O)C1=O` [Example 188, (R)-3-((S)-2-(2-chloro-3,4-dihydroxyphenyl)-2-(4-ethyl-2,3-dioxopiperazine-1-carboxamido)acetamido)-7-fluoro-2-hydroxy-3,4-dihydro-2H-benzo[e][1,2]oxaborinine-8-carboxylic acid], the MIC with N. gonorrhoeae FA19 was 16 to 32 mg/L (≈ 27 to 54 µM); in the test with E. coli 901C, 2 to 4 mg/L; in the test with E. coli AG100A, 8 to 16 mg/L; with E. coli D22 it was 8 to 16 mg/L; with K. pneumoniae UMM, over 128 mg/L; with K. pneumoniae SI-117, 32 to 64 mg/L. The EC50 on E. coli PBP3 is 30 to 500 µM.

Take `CCN1CCN(C(=O)NC(C(=O)N[C@H]2Cc3ccc(F)c(C(=O)O)c3OB2O)c2ccc(S(N)(=O)=O)cc2)C(=O)C1=O` (stereo partly drawn) [Example 181, (3R)-3-(2-(4-ethyl-2,3-dioxopiperazine-1-carboxamido)-2-(4-sulfamoylphenyl)acetamido)-7-fluoro-2-hydroxy-3,4-dihydro-2H-benzo[e][1,2]oxaborinine-8-carboxylic acid]: the MIC in the test with N. gonorrhoeae FA19 was 4 to 8 mg/L (≈ 6.61 to 13.2 µM); in the test on E. coli 901C, 0.5 to 1 mg/L; in the test on E. coli AG100A, 32 to 64 mg/L; with E. coli D22, 8 to 16 mg/L; in the test with K. pneumoniae UMM it was 32 to 64 mg/L; with K. pneumoniae SI-117, over 128 mg/L. Besides, at E. coli PBP3, the EC50 lay in the range of 30 to 500 µM.

Regarding `CNCCN1CCN(C(=O)NC(C(=O)N[C@H]2Cc3cccc(C(=O)O)c3OB2O)c2ccc(O)c(O)c2Cl)C(=O)C1=O` (stereo partly drawn) [Example 239, (3R)-3-(2-(2-chloro-3,4-dihydroxyphenyl)-2-(4-(2-(methylamino)ethyl)-2,3-dioxopiperazine-1-carboxamido)acetamido)-2-hydroxy-3,4-dihydro-2H-benzo[e][1,2]oxaborinine-8-carboxylic acid], the MIC in the test with N. gonorrhoeae FA19 was over 64 mg/L; with E. coli 901C it was 2 to 4 mg/L; in the test with E. coli AG100A, 2 to 4 mg/L; in the test on E. coli D22 it was 2 to 4 mg/L; in the test with K. pneumoniae UMM, 2 to 4 mg/L; in the test on K. pneumoniae SI-117 it was over 128 mg/L. In addition, the EC50 on E. coli PBP3 was 30 to 500 µM.

On to `CCN1CCN(C(=O)N[C@@H](C(=O)N[C@H]2Cc3ccc(F)c(C(=O)O)c3OB2O)c2ccc(O)c(O)c2Cl)C(=O)C1=O` [Example 189, (R)-3-((R)-2-(2-chloro-3,4-dihydroxyphenyl)-2-(4-ethyl-2,3-dioxopiperazine-1-carboxamido)acetamido)-7-fluoro-2-hydroxy-3,4-dihydro-2H-benzo[e][1,2]oxaborinine-8-carboxylic acid], for which the MIC was 1 to 2 mg/L (≈ 1.69 to 3.37 µM) in the test with N. gonorrhoeae FA19; 0.5 to 1 mg/L in the test with E. coli 901C; 0.5 to 1 mg/L in the test with E. coli AG100A; 0.5 to 1 mg/L in the test on E. coli D22; 0.5 to 1 mg/L in the test on K. pneumoniae UMM; 0.5 to 1 mg/L in the test with K. pneumoniae SI-117. Moreover, on E. coli PBP3 (setting [1]), the EC50 was under 30 µM.

With `CCN1C[C@H](CO)N(C(=O)NC(C(=O)N[C@H]2Cc3ccc(F)c(C(=O)O)c3OB2O)c2ccc(O)c(O)c2Cl)C(=O)C1=O` (stereo partly drawn) [Example 237, (3R)-3-(2-(2-chloro-3,4-dihydroxyphenyl)-2-((R)-4-ethyl-6-(hydroxymethyl)-2,3-dioxopiperazine-1-carboxamido)acetamido)-7-fluoro-2-hydroxy-3,4-dihydro-2H-benzo[e][1,2]oxaborinine-8-carboxylic acid], the MIC in the test with N. gonorrhoeae FA19 was 4 to 8 mg/L (≈ 6.42 to 12.8 µM); with E. coli 901C, under 0.25 mg/L; in the test with E. coli AG100A it was under 0.25 mg/L; in the test with E. coli D22 it was under 0.25 mg/L; with K. pneumoniae UMM, 2 to 4 mg/L; in the test on K. pneumoniae SI-117, 2 to 4 mg/L. Moreover, the EC50 on E. coli PBP3 (setting [1]) was under 30 µM.

For `CC[C@H]1CN(CC)C(=O)C(=O)N1C(=O)NC(C(=O)N[C@H]1Cc2cccc(C(=O)O)c2OB1O)c1ncc(O)cc1F` (stereo partly drawn) [Example 218, (3R)-3-(2-((S)-4,6-diethyl-2,3-dioxopiperazine-1-carboxamido)-2-(3-fluoro-5-hydroxypyridin-2-yl)acetamido)-2-hydroxy-3,4-dihydro-2H-benzo[e][1,2]oxaborinine-8-carboxylic acid], the MIC with N. gonorrhoeae FA19 is 16 to 32 mg/L (≈ 28 to 56 µM); in the test on E. coli 901C, under 0.25 mg/L; with E. coli AG100A, 2 to 4 mg/L; in the test with E. coli D22 it was 2 to 4 mg/L; in the test on K. pneumoniae UMM, 32 to 64 mg/L; in the test on K. pneumoniae SI-117, over 128 mg/L. For the same molecule, the EC50 at E. coli PBP3 (setting [1]) was under 30 µM.

In the case of `CCN1CCN(C(=O)NC(C(=O)N[C@H]2Cc3cccc(C(=O)O)c3OB2O)c2ncc(O)cc2F)C(=O)C1=O` (stereo partly drawn) [Example 135, (3R)-3-(2-(4-ethyl-2,3-dioxopiperazine-1-carboxamido)-2-(3-fluoro-5-hydroxypyridin-2-yl)acetamido)-2-hydroxy-3,4-dihydro-2H-benzo[e][1,2]oxaborinine-8-carboxylic acid], the MIC was 1 to 2 mg/L (≈ 1.84 to 3.68 µM) in the test with N. gonorrhoeae FA19; under 0.25 mg/L with E. coli 901C; 2 to 4 mg/L with E. coli AG100A; 0.5 to 1 mg/L in the test with E. coli D22; 8 to 16 mg/L in the test with K. pneumoniae UMM; 32 to 64 mg/L with K. pneumoniae SI-117. Besides, the EC50 at E. coli PBP3 (setting [1]) was under 30 µM.

As for `CCN1C[C@H](C)N(C(=O)NC(C(=O)N[C@H]2Cc3ccc(F)c(C(=O)O)c3OB2O)c2ccc(O)c(O)c2Cl)C(=O)C1=O` (stereo partly drawn) [Example 206, (3R)-3-(2-(2-chloro-3,4-dihydroxyphenyl)-2-((S)-4-ethyl-6-methyl-2,3-dioxopiperazine-1-carboxamido)acetamido)-7-fluoro-2-hydroxy-3,4-dihydro-2H-benzo[e][1,2]oxaborinine-8-carboxylic acid], the MIC in the test with N. gonorrhoeae FA19 is 4 to 8 mg/L (≈ 6.59 to 13.2 µM); with E. coli 901C it was under 0.25 mg/L; in the test with E. coli AG100A it was under 0.25 mg/L; with E. coli D22, 0.5 to 1 mg/L; in the test on K. pneumoniae UMM, 2 to 4 mg/L; in the test with K. pneumoniae SI-117 it was 2 to 4 mg/L. Further, the EC50 at E. coli PBP3 (setting [1]) was under 30 µM.

Turning to `CCN1CCN(C(=O)NC(C(=O)N[C@H]2Cc3ccc(F)c(C(=O)O)c3OB2O)c2csc(N)n2)C(=O)C1=O` (stereo partly drawn) [Example 109, (3R)-3-(2-(2-aminothiazol-4-yl)-2-(4-ethyl-2,3-dioxopiperazine-1-carboxamido)acetamido)-7-fluoro-2-hydroxy-3,4-dihydro-2H-benzo[e][1,2]oxaborinine-8-carboxylic acid], the MIC lay within 4 to 8 mg/L (≈ 7.3 to 14.6 µM) with N. gonorrhoeae FA19; 0.5 to 1 mg/L in the test on E. coli 901C; 8 to 16 mg/L in the test with E. coli AG100A; 2 to 4 mg/L in the test with E. coli D22; 8 to 16 mg/L in the test on K. pneumoniae UMM; 8 to 16 mg/L with K. pneumoniae SI-117. For the same molecule, at E. coli PBP3 (setting [1]), the EC50 is under 30 µM.

Consider `CCN1CCN(C(=O)NC(C(=O)N[C@H]2Cc3ccc(F)c(C(=O)O)c3OB2O)c2cc(O)c(O)cc2F)C(=O)C1=O` (stereo partly drawn) [Example 136, (3R)-3-(2-(4-ethyl-2,3-dioxopiperazine-1-carboxamido)-2-(2-fluoro-4,5-dihydroxyphenyl)acetamido)-7-fluoro-2-hydroxy-3,4-dihydro-2H-benzo[e][1,2]oxaborinine-8-carboxylic acid], for which the MIC in the test on N. gonorrhoeae FA19 is 4 to 8 mg/L (≈ 6.94 to 13.9 µM); in the test on E. coli 901C, 0.5 to 1 mg/L; with E. coli AG100A, 2 to 4 mg/L; with E. coli D22, 2 to 4 mg/L; in the test on K. pneumoniae UMM, 8 to 16 mg/L; in the test on K. pneumoniae SI-117 it was over 128 mg/L. Further, the EC50 on E. coli PBP3 (setting [1]) was under 30 µM.

`C[C@H]1CN(CCO)C(=O)C(=O)N1C(=O)NC(C(=O)N[C@H]1Cc2cccc(C(=O)O)c2OB1O)c1ccc(O)c(O)c1Cl` (stereo partly drawn) [Example 224, (3R)-3-(2-(2-chloro-3,4-dihydroxyphenyl)-2-((S)-4-(2-hydroxyethyl)-6-methyl-2,3-dioxopiperazine-1-carboxamido)acetamido)-2-hydroxy-3,4-dihydro-2H-benzo[e][1,2]oxaborinine-8-carboxylic acid]: the MIC was over 64 mg/L in the test on N. gonorrhoeae FA19; 0.5 to 1 mg/L in the test with E. coli 901C; 0.5 to 1 mg/L with E. coli AG100A; 2 to 4 mg/L with E. coli D22; 2 to 4 mg/L in the test with K. pneumoniae UMM; 2 to 4 mg/L in the test with K. pneumoniae SI-117. This molecule showed an EC50 at E. coli PBP3 of 30 to 500 µM.

Source of the values: US12173018B2, “Penicillin-binding protein inhibitors” (priority 2018, dated 2024).
